# Reference: PMC10532587, “An Investigation of Structure–Activity Relationships and Cell Death Mechanisms of the Marine Alkaloids Discorhabdins in Merkel Cell Carcinoma Cells” (Marine Drugs, 2023)
# pIC50: −log10 of the molar value. Read-outs that look alike come from different tables or passages of the source.
# Assays:
# HaCaT = assay: Cell survival by CellTiterGlo, control cells; assay type: cell-based, human; details: for IC50: control skin cell line, CellTiterGlo, normalized to DMSO, read-out: IC50 (nM) HaCaT; for AUC (arbitrary units) HaCaT: area under the dose-response curve, control cells
# MCC cells [1] = assay: Cellular ATP content (CellTiterGlo), time course; assay type: cell-based; details: 10 µM, normalized to DMSO control
# Method: (§1) Cells were treated with the indicated discorhabdins (10 µM) and assessed for mitochondrial membrane potential (MMP) using JC-10 ratiometric dye. JC-10 was added for the last hour of incubation. Cellular reducing potential was assessed using a RealTimeGlo MT Cell Viability kit, and cellular ATP levels using CellTiterGlo. All values were normalized to DMSO control. Error bars (n = 3–4) represent sd. See Figures S45 and S46 for additional cell line/discorhabdin combinations, concentrations, and time points for reducing potential and MMP, respectively.
# (§2) Three methods were employed for assessment of MCC and control cell survival/viability after discorhabdin treatment, two metabolic assays and a cell permeability assay. For all three methods, cells were plated in 384-well plates at 2500 cells/well and treated with various concentrations of discorhabdins for various time periods. […] Continuous monitoring of metabolic activity was accomplished using a cellular reducing potential luminescence assay, the RealTime-Glo^TM MT Cell Viability Assay (Promega, Madison, WI, USA) according to manufacturer’s instructions. Loss of cell plasma membrane integrity was assessed using a cell-impermeant molecule that becomes fluorescent upon binding DNA [82] in parallel with apoptosis detection per manufacturer’s instructions (RealTimeGlo^TM Annexin V Apoptosis and Necrosis Assay-Promega). […]
# UISO = assay: Cell survival by CellTiterGlo, VN-MCC line UISO; assay type: cell-based; details: for IC50: CellTiterGlo, normalized to DMSO; for AUC (arbitrary units) UISO: area under the dose-response curve
# [2] = system: VP-MCC cell lines (MKL-1, MKL-2, and Waga); assay: Selectivity VP-MCC versus control cells (average AUC); assay type: cell-based
# Description: (§3) In order to compare responses among all of the discorhabdins and cell lines (98 combinations), dose–response curves were generated using identical discorhabdin dilution series. GraphPad Prism 8 (San Diego, CA, USA) software was utilized to graph dose–response data and to calculate IC50 values and area under the dose–response curves (AUC) along with 95% confidence interval estimates using four-parameter logistic nonlinear regression analysis. For further analysis and comparisons, AUC for each cell line/discorhabdin pair was visualized in a heatmap generated in R version 1.3.1073 (R Core Team (2013). R: A language and environment for statistical computing. R Foundation for Statistical Computing, Vienna, Austria, http://www.R-project.org/ (accessed on 12 January 2023).
# Figure S41: Discorhabdi nselectivity
# Discorhabdin selectivity for VP -MCC and VN- MCCcells was estimated by comparison of activity (average AUC) for each dis corhabdin against VP -MCC (panel A) or VN- MCC (panel B) cell lines compared to control cells . Discorhabdins were sort ed by selectivity from most to least selective. - fold dif fer ence = (av e VN -MCC or VP -MCC AUC/ control AUC). Error bars […]
# (1 picture or pasted object on this page, not shown here)
# UISO cells = assay: Mitochondrial membrane potential (JC-10) in UISO cells; assay type: cell-based; details: 10 µM, normalized to DMSO control
# Method: as §1
# (§4) Mitochondrial membrane potential (MMP) was assessed using the JC-10 ratiometric dye (Sigma, St. Louis, MO, USA). UISO or MKL-1 cells were treated in black-walled, clear-bottom 384-well plates (Corning Life Sciences, Durham, NC, USA) with discorhabdins or doxorubicin (Sigma, St. Louis, MO, USA) as a positive control for up to 24 h with JC-10 for the last 1 h of incubation. Red/green fluorescence signals were measured, the red/green ratio for each well was calculated and normalized to untreated (DMSO) control wells for the same cell line and incubation time to determine relative MMP.
# [3] = system: control (HaCaT) and Merkel cell carcinoma cell lines; assay: Cell survival by CellTiterGlo, all seven cell lines; assay type: cell-based; details: MCC and control cell lines
# Method: (§5) Three methods were employed for assessment of MCC and control cell survival/viability after discorhabdin treatment, two metabolic assays and a cell permeability assay. For all three methods, cells were plated in 384-well plates at 2500 cells/well and treated with various concentrations of discorhabdins for various time periods. CellTiterGlo^TM (Promega, Madison, WI, USA) measures cellular ATP content and was used to estimate potency of discorhabdins in cell viability assays as previously described. Continuous monitoring of metabolic activity was accomplished using a cellular reducing potential luminescence assay, the RealTime-Glo^TM MT Cell Viability Assay (Promega, Madison, WI, USA) according to manufacturer’s instructions. Loss of cell plasma membrane integrity was assessed using a cell-impermeant molecule that becomes fluorescent upon binding DNA [82] in parallel with apoptosis detection per manufacturer’s instructions (RealTimeGlo^TM Annexin V Apoptosis and Necrosis Assay-Promega). Two additional assays of apoptotic cell death were also used. Caspase activation in response to treatment of MCC cells by discorhabdins or bortezomib (as a positive control) was measured using the CaspaseGlo® 3/7 Assay (Promega, Madison, WI, USA) according to the manufacturer’s instructions at multiple time points. Inhibition of apoptotic cell death was investigated using pre-treatment of cells with for 1 h with the pan-caspase inhibitor Z-VAD-FMK (Enzo Life Sciences, Farmingdale, NY, USA) followed by treatment with discorhabdins or bortezomib and estimation of cell viability as outlined above.
# as §3
# Figure S39: Activity of discorhabdins against M CC cell lines.
# The indicated discorh abd ins were ass essed for th eir ability to affect surviv al of control (H aCaT) and Merkel cell carcino ma cell lines (VN-MCC: MCC13, MCC26, UISO and VP -MCC: MKL-1, MKL-2, Wag a). Cells were plat ed at 2500 cells/well and compounds the next day. Cell survival was estimated by CellTiterGlo (normalized to untreated (DMSO) cells on the same plate). Structures w ere o btained from the supplier and/or the PubChem database or as described in the text. Number in bold in ( ) refers to structures in Figure 1 in the text. Curves were plotted and IC50 values and 95% confidence interval calculated by GraphPad software. […]
# Waga = assay: Cell survival by CellTiterGlo, VP-MCC line Waga; assay type: cell-based; details: for IC50: CellTiterGlo, normalized to DMSO; for AUC (arbitrary units) WaGa: area under the dose-response curve
# MCC cells [4] = assay: Cellular reducing potential (RealTime-Glo MT Cell Viability); assay type: cell-based; details: 10 µM; normalized to DMSO control
# Method: as §1, §2
# MKL-1 = assay: Cell survival by CellTiterGlo, VP-MCC line MKL-1; assay type: cell-based; details: VP-MCC; for IC50: MKL-1, CellTiterGlo, normalized to DMSO, read-out: IC50 (nM) MKL-1; for AUC (arbitrary units) MKL-1: area under the dose-response curve
# caspase-3/7 [5] = assay: Caspase-3/7 activation (CaspaseGlo 3/7) in MKL-1 cells; assay type: cell-based; details: 8 or 24 h; normalized to DMSO control
# Method: (§6) (a) Caspase activation. Cells were treated for 8 or 24 h with indicated discorhabdins or bortezomib. Caspase-3/7 activity was determined (Promega CaspaseGLO-3/7) and normalized to untreated (DMSO) control cells. Error bars represent sd (n = 4). (b). Apoptosis/necrosis. Cells were treated for up to 24 h with the indicated discorhabdins and assessed for Annexin binding and cell permeability using the Promega RealTime-Glo™ Annexin V Apoptosis and Necrosis Assay kit. Luminescence indicates Annexin binding, fluorescence indicates membrane permeability.
# as §5, with “Inhibition of apoptotic cell death was investigated using pre-treatment of cells with for 1 h with the pan-caspase inhibitor Z-VAD-FMK (Enzo Life Sciences, Farmingdale, NY, USA) followed by treatment with discorhabdins or bortezomib and estimation of cell viability as outlined above.” left out
# MCC26 = assay: Cell survival by CellTiterGlo, VN-MCC line MCC26; assay type: cell-based; details: for IC50: CellTiterGlo, normalized to DMSO; for AUC (arbitrary units) MCC26: area under the dose-response curve
# caspase-3/7 [6] = assay: Caspase-3/7 activation (CaspaseGlo 3/7) in UISO cells; assay type: cell-based; details: 8 or 24 h; normalized to DMSO control
# Method: as §6
# as §5, with “Inhibition of apoptotic cell death was investigated using pre-treatment of cells with for 1 h with the pan-caspase inhibitor Z-VAD-FMK (Enzo Life Sciences, Farmingdale, NY, USA) followed by treatment with discorhabdins or bortezomib and estimation of cell viability as outlined above.” left out
# MCC13 = assay: Cell survival by CellTiterGlo, VN-MCC line MCC13; assay type: cell-based; details: for IC50: CellTiterGlo, normalized to DMSO; for AUC (arbitrary units) MCC13: area under the dose-response curve
# MKL-1 cells = assay: Mitochondrial membrane potential (JC-10) in MKL-1 cells; assay type: cell-based; details: 10 µM, normalized to DMSO control
# Method: as §1, §4
# MKL-2 = assay: Cell survival by CellTiterGlo, VP-MCC line MKL-2; assay type: cell-based; details: for IC50: CellTiterGlo, normalized to DMSO; for AUC (arbitrary units) MKL-2: area under the dose-response curve
# MCC cell lines = assay: Cell survival by CellTiterGlo, MCC cell lines together; assay type: cell-based; details: for averaged potency (IC50) across all MCC cell lines tested: average over MCC cell lines
# Method: as §5, §3
# [7] = prostate cancer xenograft model; cited from earlier work
# caspase-3 = system: caspase-3; design: method as in PMID 9917313; details: cited from earlier work
# MCC cells [8] = assay: Cell death after pretreatment with pan-caspase inhibitor Z-VAD-FMK; assay type: cell-based; details: Z-VAD-FMK 40 µM, 1 h pretreatment; discorhabdins 10 µM, bortezomib 1 µM
# Method: as §5, with “Inhibition of apoptotic cell death was investigated using pre-treatment of cells with for 1 h with the pan-caspase inhibitor Z-VAD-FMK (Enzo Life Sciences, Farmingdale, NY, USA) followed by treatment with discorhabdins or bortezomib and estimation of cell viability as outlined above.” left out
Structure (SMILES),"IC50 (HaCaT; Homo sapiens, HaCaT)",AUC (arbitrary units) HaCaT (HaCaT),cellular ATP content (MCC cells [1]),IC50 (UISO),AUC (arbitrary units) UISO (UISO),increased activity against VP-MCC compared to the control [2],"mitochondrial membrane potential (MMP), UISO (UISO cells)",IC50 (Waga),AUC (arbitrary units) WaGa (Waga),IC50 (MKL-1),AUC (arbitrary units) MKL-1 (MKL-1),"caspase-3/7 activation, MKL-1 (caspase-3/7 [5])",IC50 (MCC26),AUC (arbitrary units) MCC26 (MCC26),"caspase-3/7 activation, UISO (caspase-3/7 [6])",IC50 (MCC13),AUC (arbitrary units) MCC13 (MCC13),IC50 (MKL-2),AUC (arbitrary units) MKL-2 (MKL-2),averaged potency (IC50) across all MCC cell lines tested (MCC cell lines),also measured
"O=C1C=C2S[C@H]3C[C@]2(C=C1Br)C1=C(N3)C(=O)c2[nH]cc3c2C1=NCC3 [Compound 2, (+)-(6S,8S) discorhabdin B]",1040 nM,133.9 arbitrary units,loss of cellular ATP content was dramatic and rapid,331 nM,39.51 arbitrary units,> 10 fold,significantly reduced,75 nM,9.624 arbitrary units,25 nM,3.635 arbitrary units,lack of caspase-3/7 activation,731 nM,83.94 arbitrary units,lack of caspase-3/7 activation,426 nM,51.68 arbitrary units,90 nM,14.49 arbitrary units,sub-micromolar,"pIC50 (HaCaT; Homo sapiens, HaCaT, read-out: IC50 for control cells): ≥ 6.00; activity on cell viability, in words [3]: comparable activity against MCC and control cell lines; cellular reducing potential (MCC cells [4]): dropped significantly; mitochondrial membrane potential (MMP), MKL-1 (MKL-1 cells): significantly reduced; fold more active than discorhabdin Q (3) against MCC cells (MCC cell lines; comparator discorhabdin Q (3)): > 10 fold; fold more active against MCC cells compared to 3 (MCC cell lines; comparator printed as 3, sentence is about discorhabdin G*/I (4)): 3 fold"
"O=C1C2=C3C4=[N+](CCc5c[nH]c1c54)[C@@H]1C(=O)C=C4S[C@@H](C[C@@]43[C@H]1O)N2 [Compound 12, (−)-(1R,2S,6R,8S) discorhabdin L]",2550 nM,290.4 arbitrary units,loss of cellular ATP content was dramatic and rapid,660 nM,103 arbitrary units,,significantly reduced,440 nM,55.36 arbitrary units,83 nM,13.23 arbitrary units,lack of caspase-3/7 activation,1130 nM,140.6 arbitrary units,lack of caspase-3/7 activation,466 nM,93.66 arbitrary units,245 nM,50.71 arbitrary units,sub-micromolar,"cellular reducing potential (MCC cells [4]): dropped significantly; in vivo toxicity in animals [7]: minimal in vivo toxicity; mitochondrial membrane potential (MMP), MKL-1 (MKL-1 cells): significantly reduced"
"Cn1cc2c3c1C(=O)C1=C(C3=NCC2)C2(C=C(Br)C(=O)C(Br)=C2)CCN1 [Compound 17, discorhabdin P]",1260 nM,150.9 arbitrary units,,292 nM,50.65 arbitrary units,> 10 fold,,106 nM,14.11 arbitrary units,68 nM,7.146 arbitrary units,,1210 nM,140.1 arbitrary units,,499 nM,64.76 arbitrary units,87 nM,17.05 arbitrary units,sub-micromolar,"activity on cell viability, in words [3]: more potent than discorhabdin C in all seven cell lines; caspase-3 inhibition (caspase-3): reported to inhibit caspase-3"
"CC(C)C[C@H](NC(=O)[C@H](Cc1ccccc1)NC(=O)c1cnccn1)B(O)O [bortezomib, reference compound]",,,,,,,,,,,,robustly activates caspase,,,robustly activates caspase,,,,,,effect of Z-VAD-FMK pretreatment on induced MCC cell death (MCC cells [8]): reduced bortezomib-induced
